Source: ChEMBL document CHEMBL5335827, “Divergent Biosynthesis of Bridged Polycyclic Sesquiterpenoids by a Minimal Fungal Biosynthetic Gene Cluster” (J Nat Prod, 2024)
Activity calls are given as the source filed them. The calls are words filed in the database; no cut-off is given here.

Tests used:
Assay type in all cases: functional, cell-based
LoVo = assay: Cytotoxicity against human LoVo cells at 20 uM by CCK8 assay
HepG2 = assay: Cytotoxicity against human HepG2 cells at 20 uM by CCK8 assay
RAW264.7 = assay: Anti-inflammatory activity against mouse RAW264.7 cells assessed as inhibition of LPS-induced NO release by Griess assay

Row | Compound | Activity (LoVo) | Activity (HepG2) | IC50 (RAW264.7) [µM]
1 | C=C1C2C(=O)C[C@@H]3C2C(C)(C)CCC[C@]13CO | inactive | inactive | –
2 | C=C1C2C3[C@@H](C[C@@H]2O)[C@]1(C)C(=O)CCC3(C)C | inactive | inactive | –
3 | C=C1[C@@H]2C(O)C(O)[C@H]3[C@@H]2[C@@H](C(C)C)CC[C@@]13CO (stereo partly specified) | inactive | inactive | –
4 | C=C1[C@@H]2OC[C@H]3[C@@H]([C@H]2O)[C@@H](C(C)C)CC[C@@]13C | inactive | inactive | –
5 | C=C1C2C3[C@@H](C[C@@H]2O)[C@]1(C)CC[C@H](O)C3(C)C | inactive | inactive | –
6 | CC(C)[C@H]1CC[C@]2(C)[C@H]3CO[C@]2(CO)C=C[C@@H]13 | inactive | inactive | –
7 | CC1(C)CCC[C@]2(C)C(CO)=CC1[C@H]2CCO | inactive | inactive | –
8 | C=C1[C@H]([C@@H]2C[C@H](O)C(=O)O2)[C@H]2[C@@H](C(C)C)CC[C@]1(C)[C@H]2CO | inactive | inactive | –
9 | C=C1CC2[C@@H](C(C)C)CC[C@]1(C)[C@H]2C(O)CO (stereo partly specified) | inactive | inactive | –
10 | CC(C)[C@H]1CC[C@]2(CO)C(C)[C@@H]3C(O)C(O)[C@H]2C13 (mixture of isomers) | inactive | inactive | –
11 | CC(=O)/C=C/[C@H]1[C@H]2C(C=O)=C(C)[C@]1(C)CC[C@@H]2C(C)C | inactive | inactive | 3.9
12 | C=C1C2C(=O)C[C@@H]3C2C(C)(C)CC[C@H](O)[C@]13C | inactive | inactive | –
13 | C=C1C2C3[C@@H](C[C@@H]2O)[C@]1(C)CCC[C@@]3(C)CO | inactive | inactive | –
14 | C=C1[C@H](CO)C2[C@@H]([C@H](C)CO)CC[C@]1(C)[C@H]2CO | inactive | inactive | –
15 | C=C1C2C3[C@@H](C[C@@H]2O)[C@]1(C)[C@H](O)CCC3(C)C | inactive | inactive | –
